Among the data in patent US20040224958A1, “Pyridopyrimidinone derivatives for treatment of neurodegenerative disease” (priority 2000, published 2004) are IC50 values, retold here.

Each structure is given as a SMILES string.

One experiment addresses Cdk5/p25 (Homo sapiens, UniProt Q00535). The experiment can be described thus: Cyclin-Dependent Kinase 5 High Throughput Screening (cdk5-HTS) Assay. The settings on record: high throughput screen. The format is biochemical. In short, it runs like this: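 IC50 determined from 33P incorporation into GST-RbCOOH captured on glutathione plates and read by scintillation counting. Reaction: 1.0 μg/mL Cdk5/p25, 20 μM [γ33P]ATP, pH 7.4 Tris buffer with MgCl2 and DTT, 30 min at room temperature, stopped with EDTA.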

Another experiment has as its target cdk4/D (Homo sapiens, UniProt P11802). The experiment can be described thus: Cyclin-Dependent Kinase 4 (cdk4) Assay. The class given is biochemical. The settings on record: read-out: cdk4/D IC50.
In the next experiment the target is cdc2/cyclinB (Homo sapiens, UniProt P06493). Put plainly: Cyclin-Dependent Kinase Assay cdc2/cyclinB.
The target of another experiment is cdk2/cyclinA (Homo sapiens, UniProt P24941). Put plainly: Cyclin-Dependent Kinase Assay cdk2/cyclinA. The note with it: cdk2/A IC50.
In the next experiment the target is cdk2/cyclinE (Homo sapiens, UniProt P24941). The experiment can be described thus: Cyclin-Dependent Kinase Assay cdk2/cyclinE. The note with it: cdk2/E IC50.

Chain of cdk4/D (P11802 whole entry): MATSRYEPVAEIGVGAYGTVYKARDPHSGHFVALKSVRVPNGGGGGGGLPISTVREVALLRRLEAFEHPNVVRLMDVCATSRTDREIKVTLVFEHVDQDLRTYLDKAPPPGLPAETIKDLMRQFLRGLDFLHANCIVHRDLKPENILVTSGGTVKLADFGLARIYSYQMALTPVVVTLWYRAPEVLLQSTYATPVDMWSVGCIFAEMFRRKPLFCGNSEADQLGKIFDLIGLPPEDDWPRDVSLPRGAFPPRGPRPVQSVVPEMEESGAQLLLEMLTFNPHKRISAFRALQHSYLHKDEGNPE
Chain of cdk4/D (P24385 whole entry, further chain): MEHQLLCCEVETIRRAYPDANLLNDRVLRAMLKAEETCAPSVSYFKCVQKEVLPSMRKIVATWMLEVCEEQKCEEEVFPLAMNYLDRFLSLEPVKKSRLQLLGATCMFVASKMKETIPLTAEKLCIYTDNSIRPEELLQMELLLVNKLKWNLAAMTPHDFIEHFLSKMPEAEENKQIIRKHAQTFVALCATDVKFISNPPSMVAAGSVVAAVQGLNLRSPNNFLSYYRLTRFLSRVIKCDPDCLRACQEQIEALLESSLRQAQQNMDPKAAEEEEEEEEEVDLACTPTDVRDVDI
Chain of cdc2/cyclinB (P06493 whole entry): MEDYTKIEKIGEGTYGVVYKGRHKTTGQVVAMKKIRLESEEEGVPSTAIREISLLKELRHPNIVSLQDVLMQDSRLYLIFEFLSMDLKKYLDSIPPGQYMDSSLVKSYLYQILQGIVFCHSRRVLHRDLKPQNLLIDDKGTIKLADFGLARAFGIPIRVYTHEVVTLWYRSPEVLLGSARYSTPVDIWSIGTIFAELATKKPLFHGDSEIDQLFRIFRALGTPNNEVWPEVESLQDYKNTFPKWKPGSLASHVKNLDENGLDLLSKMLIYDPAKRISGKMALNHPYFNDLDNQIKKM
Chain of cdc2/cyclinB (P14635 whole entry, further chain): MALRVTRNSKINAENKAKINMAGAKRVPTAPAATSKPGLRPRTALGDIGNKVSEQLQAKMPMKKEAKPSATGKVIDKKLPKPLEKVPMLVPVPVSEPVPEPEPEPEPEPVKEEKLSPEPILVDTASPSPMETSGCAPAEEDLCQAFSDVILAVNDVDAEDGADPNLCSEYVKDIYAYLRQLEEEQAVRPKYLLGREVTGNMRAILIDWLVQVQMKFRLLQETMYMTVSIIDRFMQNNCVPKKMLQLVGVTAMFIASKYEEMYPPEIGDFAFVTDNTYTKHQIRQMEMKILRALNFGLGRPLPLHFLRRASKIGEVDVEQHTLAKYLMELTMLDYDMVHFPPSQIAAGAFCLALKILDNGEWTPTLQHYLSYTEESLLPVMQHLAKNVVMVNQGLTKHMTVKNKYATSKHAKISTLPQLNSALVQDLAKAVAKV

For the molecule `CCC(CC)n1c(=O)ccc2cnc(Nc3ccc(F)cc3F)nc21` [Example 483, 2-(2,4-Difluoro-phenylamino)-8-(1-ethyl-propyl)-8H-pyrido[2,3-d]pyrimidin-7-one], the IC50 was found to be 0.169 µM against Cdk5/p25; 1.33 µM at cdk4/D; 0.731 µM on cdc2/cyclinB; 1.67 µM at cdk2/cyclinA; 0.354 µM against cdk2/cyclinE.
As to `CCC(CC)n1c(=O)ccc2cnc(Nc3ccc(C#N)cc3)nc21` [Example 484], the IC50 worked out at 0.0408 µM at Cdk5/p25; 0.187 µM at cdk4/D; 0.192 µM against cdc2/cyclinB; 0.363 µM against cdk2/cyclinA; 0.136 µM against cdk2/cyclinE.
With `CCC(CC)n1c(=O)ccc2cnc(Nc3ccc(Cl)c(C(F)(F)F)c3)nc21` [Example 486, 2-(4-Chloro-3-trifluoromethyl-phenylamino)-8-(1-ethyl-propyl)-8H-pyrido[2,3-d]pyrimidin-7-one], the IC50 worked out at 0.0828 µM against Cdk5/p25; 1.03 µM at cdk4/D; 0.218 µM against cdc2/cyclinB; 0.92 µM on cdk2/cyclinA; 0.467 µM against cdk2/cyclinE.
For the molecule `CCC(CC)n1c(=O)ccc2cnc(Nc3cccc(C(F)(F)F)c3)nc21` [Example 487, 8-(1-Ethyl-propyl)-2-(3-trifluoromethyl-phenylamino)-8H-pyrido[2,3-d]pyrimidin-7-one], the IC50 was found to be 0.0768 µM against Cdk5/p25; 0.692 µM on cdk4/D; 0.177 µM at cdc2/cyclinB; 0.728 µM at cdk2/cyclinA; 0.21 µM against cdk2/cyclinE.
For `CCC(CC)n1c(=O)ccc2cnc(Nc3ccc(Br)c(C(F)(F)F)c3)nc21` [Example 488, 2-(4-Bromo-3-trifluoromethyl-phenylamino)-8-(1-ethyl-propyl)-8H-pyrido[2,3-d]pyrimidin-7-one], the IC50 against Cdk5/p25 is 0.124 µM; at cdk4/D it was 2.25 µM; against cdc2/cyclinB it was 0.446 µM; against cdk2/cyclinA it was 1.98 µM; on cdk2/cyclinE, 0.494 µM.
In the case of `CCC(CC)n1c(=O)ccc2cnc(Nc3cccc(I)c3)nc21` [Example 490, 8-(1-Ethyl-propyl)-2-(3-iodo-phenylamino)-8H-pyrido[2,3-d]pyrimidin-7-one], the IC50 on Cdk5/p25 was found to be 0.0492 µM; at cdk4/D, 0.35 µM; against cdc2/cyclinB, 0.0867 µM; at cdk2/cyclinA, 0.753 µM; against cdk2/cyclinE, 0.0797 µM.
For `CCC(CC)n1c(=O)ccc2cnc(Nc3ccc(C)c(C)c3)nc21` [Example 491, 2-(3,4-Dimethyl-phenylamino)-8-(I-ethyl-propyl)-8H-pyrido[2,3-d]pyrimidin-7-one], in that order: 0.0444 µM, 0.26 µM, 0.151 µM, 0.436 µM and 0.179 µM.
In the same order, the values of `CCC(CC)n1c(=O)ccc2cnc(Nc3ccc4[nH]ccc4c3)nc21` [Example 492, 8-(1-Ethyl-propyl)-2-(1H-indol-5-ylamino)-8H-pyrido[2,3-d]pyrimidin-7-one] are 0.086 µM, 0.124 µM, 0.145 µM, 0.6 µM and 0.163 µM.
For `CCC(CC)n1c(=O)ccc2cnc(Nc3ccc4[nH]c(=O)[nH]c4c3)nc21` [Example 493, 8-(1-Ethyl-propyl)-2-(2-oxo-2,3-dihydro-1H-benzimidazol-5-ylamino)-8H-pyrido[2,3-d]pyrimidin-7-one], in that order: 0.0087 µM, 0.025 µM, 0.0145 µM, 0.0505 µM and 0.012 µM.
Turning to `CCC(CC)n1c(=O)ccc2cnc(Nc3ccc(NC(=O)OC(C)(C)C)cc3)nc21` [Example 494, {4-[8-(1-Ethyl-propyl)-7-oxo-7,8-dihydro-pyrido[2,3-d]pyrimidin-2-ylamino]-phenyl}-carbamic acid tert-butyl ester], the IC50 came to 0.072 µM on Cdk5/p25; 0.23 µM on cdk4/D; 0.102 µM at cdc2/cyclinB; 0.44 µM on cdk2/cyclinA; 0.127 µM against cdk2/cyclinE.
For `CCC(CC)n1c(=O)ccc2cnc(Nc3ccc(O)cc3F)nc21` [Example 495, 8-(1-Ethyl-propyl)-2-(2-fluoro-4-hydroxy-phenylamino)-8H-pyrido[2,3-d]pyrimidin-7-one], in that order: 0.107 µM, 0.57 µM, 0.215 µM, 0.65 µM and 0.147 µM.
As for `CCC(CC)n1c(=O)ccc2cnc(Nc3ccc(O)c(Cl)c3)nc21` [Example 496, 2-(3-Chloro-4-hydroxy-phenylamino)-8-(1-ethyl-propyl)-8H-pyrido[2,3-d]pyrimidin-7-one], the IC50 is 0.0175 µM on Cdk5/p25; 0.28 µM on cdk4/D; 0.024 µM against cdc2/cyclinB; 0.0895 µM against cdk2/cyclinA; 0.031 µM at cdk2/cyclinE.
For `CCC(CC)n1c(=O)ccc2cnc(Nc3cc(Cl)c(O)c(Cl)c3)nc21` [Example 497, 2-(3,5-Dichloro-4-hydroxy-phenylamino)-8-(1-ethyl-propyl)-8H-pyrido[2,3-d]pyrimidin-7-one], in that order: 0.0555 µM, 0.48 µM, 0.0465 µM, 0.16 µM and 0.08 µM.
For `CCC(CC)n1c(=O)ccc2cnc(Nc3cccc([N+](=O)[O-])c3)nc21` [Example 498, 8-(1-Ethyl-propyl)-2-(3-nitro-phenylamino)-8H-pyrido[2,3-d]pyrimidin-7-one], in that order: 0.068 µM, 0.17 µM, 0.0495 µM, 0.2 µM and 0.047 µM.
For `CCC(CC)n1c(=O)ccc2cnc(Nc3ccc(OC)c(OC)c3)nc21` [Example 499, 2-(3,4-Dimethoxy-phenylamino)-8-(1-ethyl-propyl)-8H-pyrido[2,3-d]pyrimidin-7-one], in that order: 0.0125 µM, 0.192 µM, 0.046 µM, 0.115 µM and 0.0463 µM.
As to `CCC(CC)n1c(=O)ccc2cnc(Nc3ccc(Cl)c(C)c3)nc21` [Example 500, 2-(4-Chloro-3-methyl-phenylamino)-8-(1-ethyl-propyl)-8H-pyrido[2,3-d]pyrimidin-7-one], the IC50 against Cdk5/p25 turned out to be 0.016 µM; on cdk4/D, 0.098 µM; at cdc2/cyclinB, 0.11 µM; against cdk2/cyclinA it was 0.34 µM; against cdk2/cyclinE, 0.074 µM.
For `CCC(CC)n1c(=O)ccc2cnc(Nc3ccc(F)c(C(F)(F)F)c3)nc21` [Example 502, 8-(1-Ethyl-propyl)-2-(4-fluoro-3-trifluoromethyl-phenylamino)-8H-pyrido[2,3-d]pyrimidin-7-one], in that order: 0.021 µM, 0.35 µM, 0.1 µM, 0.36 µM and 0.068 µM.
For `CCC(CC)n1c(=O)ccc2cnc(Nc3ccc(OC)c(F)c3)nc21` [Example 505, 8-(1-Ethyl-propyl)-2-(3-fluoro-4-methoxy-phenylamino)-8H-pyrido[2,3-d]pyrimidin-7-one], in that order: 0.014 µM, 0.034 µM, 0.073 µM, 0.22 µM and 0.067 µM.
In the same order, the values of `CCC(CC)n1c(=O)ccc2cnc(Nc3ccc(C#N)c(NC(C)=O)c3)nc21` [Example 506, N-{2-Cyano-5-[8-(-ethyl-propyl)-7-oxo-7,8-dihydro-pyrido[2,3-d]pyrimidin-2-ylamino]-phenyl}-acetamide] are 0.044 µM, 0.036 µM, 0.11 µM, 0.4 µM and 0.093 µM.
Regarding `CCC(CC)n1c(=O)ccc2cnc(Nc3ccc(Br)c(Cl)c3)nc21` [Example 507, 2-(4-Bromo-3-chloro-phenylamino)-8-(1-ethyl-propyl)-8H-pyrido[2,3-d]pyrimidin-7-one], the IC50 stood at 0.064 µM against Cdk5/p25; 0.15 µM at cdk4/D; 0.33 µM on cdc2/cyclinB; 1.3 µM on cdk2/cyclinA; 0.31 µM at cdk2/cyclinE.
Turning to `CCC(CC)n1c(=O)ccc2cnc(Nc3cc(OC)cc(C(F)(F)F)c3)nc21` [Example 508, 8-(1-Ethyl-propyl)-2-(3-methoxy-5-trifluoromethyl-phenylamino)-8H-pyrido[2,3-d]pyrimidin-7-one], the IC50 at Cdk5/p25 was 0.07 µM; on cdk4/D it was 0.14 µM; at cdc2/cyclinB, 0.23 µM; against cdk2/cyclinA it was 2.1 µM; at cdk2/cyclinE, 0.28 µM.
In the same order, the values of `CCC(CC)n1c(=O)ccc2cnc(Nc3ccc(F)c(F)c3)nc21` [Example 509, 2-(3,4-Difluoro-phenylamino)-8-(I-ethyl-propyl)-8H-pyrido[2,3-d]pyrimidin-7-one] are 0.026 µM, 0.098 µM, 0.19 µM, 0.24 µM and 0.064 µM.
With `CCC(CC)n1c(=O)ccc2cnc(Nc3cc(F)cc(F)c3)nc21` [Example 510, 2-(3,5-Difluoro-phenylamino)-8-(1-ethyl-propyl)-8H-pyrido[2,3-d]pyrimidin-7-one], the IC50 was found to be 0.12 µM on Cdk5/p25; 0.27 µM on cdk4/D; 0.18 µM at cdc2/cyclinB; 0.31 µM against cdk2/cyclinA; 0.21 µM against cdk2/cyclinE.
